According to ChEMBL document CHEMBL1129185, “The design and synthesis of non-peptide ligands with affinity and selectivity for tachykinin receptors” (Bioorg Med Chem Lett, 1996):
Peptide text beside a SMILES is read from it.

Legend:
Substance-P receptor [1] = biological target: T1, Substance-P receptor (Homo sapiens, UniProt P25103); experiment: Inhibitory activity against binding of [125I]Bolton-Hunter SP to tachykinin NK-1 receptor in human lymphoma IM9 cells; type: cell-based, IM-9
[2] = biological target: T2, Neuromedin-K receptor (Cavia porcellus) (UniProt P30098); experiment: Inhibitory activity against binding of [125I][MePhe7]-NKB SP to tachykinin NK-3 receptor in guinea pig cortical membranes at concentration 10 uM; type: cell membranes
T2 sequence (whole entry): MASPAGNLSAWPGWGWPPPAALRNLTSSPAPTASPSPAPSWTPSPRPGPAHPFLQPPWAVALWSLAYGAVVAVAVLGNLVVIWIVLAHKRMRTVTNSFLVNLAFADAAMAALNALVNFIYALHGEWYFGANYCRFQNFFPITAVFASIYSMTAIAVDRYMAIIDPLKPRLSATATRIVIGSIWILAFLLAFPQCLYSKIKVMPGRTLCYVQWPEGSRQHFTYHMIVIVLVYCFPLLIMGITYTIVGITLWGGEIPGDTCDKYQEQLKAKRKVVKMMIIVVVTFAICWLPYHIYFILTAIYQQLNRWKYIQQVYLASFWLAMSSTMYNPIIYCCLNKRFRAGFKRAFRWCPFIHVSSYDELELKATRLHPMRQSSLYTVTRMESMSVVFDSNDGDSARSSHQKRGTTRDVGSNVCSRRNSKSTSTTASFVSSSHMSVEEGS

Substance-P receptor [3] = biological target: T1, Substance-P receptor; experiment: Inhibitory activity against binding of [125I]Bolton-Hunter SP to tachykinin NK-1 receptor in human lymphoma IM9 cells.; type: cell-based, IM-9
Neuromedin-K receptor = biological target: T3, Neuromedin-K receptor (Cavia porcellus, UniProt P30098); experiment: Inhibitory activity against binding of [125I][MePhe7]-NKB SP to tachykinin NK-3 receptor in guinea pig cortical membranes.; type: cell membranes
T3 sequence (P30098 whole entry): T2 sequence (whole entry)

Substance-P receptor [4] = biological target: T1, Substance-P receptor; experiment: Inhibitory activity against binding of [125I]Bolton-Hunter SP to tachykinin NK-1 receptor in human lymphoma IM9 cells at concentration 10 uM; type: cell-based; conditions: IM-9

T1 sequence (P25103 whole entry): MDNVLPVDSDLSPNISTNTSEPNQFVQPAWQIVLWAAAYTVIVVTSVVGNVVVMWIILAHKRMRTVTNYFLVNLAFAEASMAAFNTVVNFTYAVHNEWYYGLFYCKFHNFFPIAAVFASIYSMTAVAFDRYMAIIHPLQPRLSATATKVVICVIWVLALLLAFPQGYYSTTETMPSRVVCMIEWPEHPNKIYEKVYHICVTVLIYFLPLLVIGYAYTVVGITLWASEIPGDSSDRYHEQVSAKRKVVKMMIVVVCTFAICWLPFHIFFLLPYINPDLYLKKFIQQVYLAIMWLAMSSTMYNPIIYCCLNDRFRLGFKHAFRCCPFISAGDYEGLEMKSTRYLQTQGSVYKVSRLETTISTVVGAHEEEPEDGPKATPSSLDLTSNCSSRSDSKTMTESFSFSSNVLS

Compound	IC50 (Substance-P receptor [1]) [µM]	inhibition [2] [%]	IC50 (Substance-P receptor [3]) [µM]	IC50 (Neuromedin-K receptor) [µM]	inhibition (Substance-P receptor [4]) [%]
NC(=O)[C@H](Cc1ccccc1)NC(=O)[C@H](Cc1c[nH]c2ccccc12)NC(=O)OCc1ccccc1 (HELM PEPTIDE1{[O=C(OCc1ccccc1)[*:2]].W.F.[am]}$$$$V2.0)	4.2	< 10			
O=C1C(Cc2c[nH]c3ccccc23)OCCN1Cc1ccccc1 (configuration not stated)		< 10	3.5		
CSCC[C@H](NC(=O)[C@H](CC(C)C)NC(=O)CNC(=O)[C@H](Cc1ccccc1)NC(=O)[C@H](Cc1ccccc1)NC(=O)[C@H](CCC(N)=O)NC(=O)[C@H](CCC(N)=O)NC(=O)[C@@H]1CCCN1C(=O)[C@H](CCCCN)NC(=O)[C@@H]1CCCN1C(=O)[C@@H](N)CCCN=C(N)N)C(N)=O [SUBSTANCE P]				0.717	
O=C1C(Cc2ccccc2)OCCN1Cc1ccccc1 (configuration not stated)				4.09	< 10
